Results published in US20240408062A1 (Purdue Research Foundation, priority 2022, published 2024).

Biological target: SARS-CoV-2 3CLpro (Severe acute respiratory syndrome coronavirus 2, UniProt P0DTD1)
Experiment: Inhibition of SARS-CoV-2 3CLpro, continuous fluorescence assay with FRET-based substrate UIVT3
Type: biochemical
Settings: FRET substrate UIVT3, 50-200 nM enzyme, pH 7.5, 25° C.
Procedure: Kinetic assays were performed in Costar 3694 EIA/RIA 96-well half-area, flat bottom, black polystyrene plates (Corning, Corning, NY) at 25° C. The increase in fluorescence intensity was measured at an emission wavelength of 528 nm (20 nm bandwidth) using an excitation wavelength of 485 (bandwidth 20 nm) using a CLARIOstar Plate Reader (BMG Labtech, Cary, NC). The initial rates of the reactions were determined from the slopes of the Relative Fluorescence Units (RFU) versus time (RFU min^−1). Inhibition data were collected and analyzed as described previously.

Row | SMILES | Activity of SARS-CoV-2 Mpro inhibitors
1 | COc1cccc2[nH]c(C(=O)N[C@@H](CC(C)C)C(=O)N[C@@H](C[C@@H]3CCNC3=O)C(=O)C(=O)c3ccccc3)cc12 [Compound 1] | A++ (A++ < 1 μM)
2 | CC(C)C[C@@H](C(=O)N[C@@H](CC1CCCNC1=O)C(=O)C(=O)c1ccccc1)N(C)C(=O)[C@@H](NC(=O)C(F)(F)F)C(C)(C)C (some centres unmarked) [Compound 5] | A++ (A++ < 1 μM)
3 | CN(C(=O)[C@@H](NC(=O)C(F)(F)F)C(C)(C)C)[C@H](CC1CCCC1)C(=O)NC(C[C@@H]1CCNC1=O)C(=O)C(=O)c1ccccc1 (some centres unmarked) [Compound 3] | A+ (A+ < 10 μM)
4 | CC(C)C[C@@H](C(=O)N[C@@H](C[C@@H]1CCNC1=O)C(=O)C(=O)c1ccccc1)N(C)C(=O)[C@@H](NC(=O)C(F)(F)F)C(C)(C)C [Compound 2] | A+ (A+ < 10 μM)
5 | CC(C)C[C@H](CC(=O)[C@@H](NC(=O)C(F)(F)F)C(C)(C)C)C(=O)N[C@@H](C[C@@H]1CCNC1=O)C(=O)C(=O)c1ccccc1 [Compound 4] | A++ (A++ < 1 μM)
